Results reported in ChEMBL document CHEMBL3885881, “DrugMatrix”.

Organism: Rattus norvegicus
Experiment: DrugMatrix - Regimen: Daily Repeat
Type: toxicity, organism-based, Sprague-Dawley
Parameters: regimen Daily Repeat, gender Male, age 6-8 weeks
Settings: in vivo, sc, route mini-PUMP - SUBCUTANEOUS, vehicle 100 % SALINE; for TOTAL PROTEIN / ALANINE AMINOTRANSFERASE / ALBUMIN / ALKALINE PHOSPHATASE / ASPARTATE AMINOTRANSFERASE / BLOOD UREA NITROGEN / CARBON DIOXIDE / CHLORIDE / CHOLESTEROL / LACTATE DEHYDROGENASE / LIPASE / PHOSPHORUS / POTASSIUM / SODIUM / CREATININE / TOTAL BILIRUBIN: tissue Plasma; for ABSOLUTE BASOPHIL / ABSOLUTE EOSINOPHIL / ABSOLUTE LYMPHOCYTE / ABSOLUTE MONOCYTE / ABSOLUTE SEGMENTED NEUTROPHIL / BASOPHIL / EOSINOPHIL / ERYTHROCYTE COUNT / HEMOGLOBIN / LEUKOCYTE COUNT / LYMPHOCYTE / MEAN CORPUSCULAR HEMOGLOBIN / MEAN CORPUSCULAR HEMOGLOBIN CONCENTRATION / MEAN CORPUSCULAR VOLUME / NUCLEATED RED BLOOD CELLS / PLATELET COUNT: tissue Blood
[1] = 0 mg/kg, 120 h, dose level Control, time 5 day
[2] = 0 mg/kg, […], dose level Control, time 14 day
[3] = […], dose 0.77 mg/Kg, dose level High, time 14 day

Q: Which “TOTAL PROTEIN” value (0 mg/kg, 72 h, dose level Control, time 3 day) does the source give for `CNC[C@H](O)c1ccc(O)c(O)c1` [EPINEPHRINE] here?
A: 6.05 G/DL

Q: What about the “ABSOLUTE BASOPHIL” value [1] of the same compound?
A: 0 CELLS/uL

Q: What about the “ABSOLUTE EOSINOPHIL” value [1] of the same compound?
A: 0 CELLS/uL

Q: And the “ABSOLUTE LYMPHOCYTE” value [1]?
A: 14257.33 CELLS/uL

Q: What about the “ABSOLUTE MONOCYTE” value [1] of the same compound?
A: 326 CELLS/uL

Q: What about the “ABSOLUTE SEGMENTED NEUTROPHIL” value [1] of the same compound?
A: 3216.67 CELLS/uL

Q: What about the BASOPHIL [1] of the same compound?
A: 0%

Q: And the EOSINOPHIL [1]?
A: 0%

Q: What about the “ERYTHROCYTE COUNT” value [1] of the same compound?
A: 6.11 x10E6/uL

Q: And the HEMOGLOBIN [1]?
A: 13.18 G/DL

Q: And the “LEUKOCYTE COUNT” value [1]?
A: 17.8 x10E3/uL

Q: And the LYMPHOCYTE [1]?
A: 80.5%

Q: And the “MEAN CORPUSCULAR HEMOGLOBIN” value [1]?
A: 21.62 pg

Q: What about the “MEAN CORPUSCULAR HEMOGLOBIN CONCENTRATION” value [1] of the same compound?
A: 36.42 G/DL

Q: What about the “MEAN CORPUSCULAR VOLUME” value [1] of the same compound?
A: 59.37 fL

Q: And the “NUCLEATED RED BLOOD CELLS” value [1]?
A: 0 /100WBC

Q: And the “PLATELET COUNT” value [1]?
A: 1311 x10E3/uL

Q: What about the “ALANINE AMINOTRANSFERASE” value [1] of the same compound?
A: 47 u/L

Q: And the ALBUMIN [1]?
A: 3.83 G/DL

Q: And the “ALKALINE PHOSPHATASE” value [1]?
A: 260.33 u/L

Q: And the “ASPARTATE AMINOTRANSFERASE” value [1]?
A: 76.17 u/L

Q: And the “BLOOD UREA NITROGEN” value [1]?
A: 14.67 mg/dL

Q: And the “CARBON DIOXIDE” value [1]?
A: 31.33 mmol/L

Q: What about the CHLORIDE [1] of the same compound?
A: 101.17 MEQ/L

Q: And the CHOLESTEROL [1]?
A: 75 mg/dL

Q: What about the “LACTATE DEHYDROGENASE” value [1] of the same compound?
A: 147.33 u/L

Q: And the LIPASE [1]?
A: 9.33 u/L

Q: What about the PHOSPHORUS [1] of the same compound?
A: 10.97 mg/dL

Q: And the POTASSIUM [1]?
A: 6 MEQ/L

Q: What about the SODIUM [1] of the same compound?
A: 145.52 MEQ/L

Q: And the “TOTAL PROTEIN” value [1]?
A: 5.83 G/DL

Q: What about the “ABSOLUTE BASOPHIL” value [2] of the same compound?
A: 0 CELLS/uL

Q: And the “ABSOLUTE EOSINOPHIL” value [2]?
A: 64.5 CELLS/uL

Q: What about the “ABSOLUTE LYMPHOCYTE” value [2] of the same compound?
A: 12507.83 CELLS/uL

Q: What about the “ABSOLUTE MONOCYTE” value [2] of the same compound?
A: 380.33 CELLS/uL

Q: And the “ABSOLUTE SEGMENTED NEUTROPHIL” value [2]?
A: 2414 CELLS/uL

Q: And the BASOPHIL [2]?
A: 0%

Q: What about the EOSINOPHIL [2] of the same compound?
A: 0.5%

Q: And the “ERYTHROCYTE COUNT” value [2]?
A: 6.1 x10E6/uL

Q: And the HEMOGLOBIN [2]?
A: 12.88 G/DL

Q: And the “LEUKOCYTE COUNT” value [2]?
A: 15.37 x10E3/uL

Q: And the LYMPHOCYTE [2]?
A: 80.83%

Q: What about the “MEAN CORPUSCULAR HEMOGLOBIN” value [2] of the same compound?
A: 21.18 pg

Q: And the “MEAN CORPUSCULAR HEMOGLOBIN CONCENTRATION” value [2]?
A: 36.43 G/DL

Q: And the “MEAN CORPUSCULAR VOLUME” value [2]?
A: 58.17 fL

Q: What about the “NUCLEATED RED BLOOD CELLS” value [2] of the same compound?
A: 0.17 /100WBC

Q: And the “PLATELET COUNT” value [2]?
A: 1016 x10E3/uL

Q: And the “ALANINE AMINOTRANSFERASE” value [2]?
A: 53.33 u/L

Q: And the ALBUMIN [2]?
A: 3.93 G/DL

Q: What about the “ALKALINE PHOSPHATASE” value [2] of the same compound?
A: 319.83 u/L

Q: What about the “ASPARTATE AMINOTRANSFERASE” value [2] of the same compound?
A: 84 u/L

Q: What about the “BLOOD UREA NITROGEN” value [2] of the same compound?
A: 15.5 mg/dL

Q: And the “CARBON DIOXIDE” value [2]?
A: 34 mmol/L

Q: And the CHLORIDE [2]?
A: 101.83 MEQ/L

Q: What about the CHOLESTEROL [2] of the same compound?
A: 57 mg/dL

Q: And the CREATININE [2]?
A: 0.21 mg/dL

Q: What about the “LACTATE DEHYDROGENASE” value [2] of the same compound?
A: 104.67 u/L

Q: And the LIPASE [2]?
A: 9.17 u/L

Q: What about the PHOSPHORUS [2] of the same compound?
A: 11.12 mg/dL

Q: What about the POTASSIUM [2] of the same compound?
A: 5.81 MEQ/L

Q: What about the SODIUM [2] of the same compound?
A: 144.85 MEQ/L

Q: What about the “TOTAL BILIRUBIN” value [2] of the same compound?
A: 0.18 mg/dL

Q: And the “TOTAL PROTEIN” value [2]?
A: 5.92 G/DL

Q: What about the “ABSOLUTE BASOPHIL” value [3] of the same compound?
A: 0 CELLS/uL

Q: What about the “ABSOLUTE EOSINOPHIL” value [3] of the same compound?
A: 121.6 CELLS/uL

Q: And the “ABSOLUTE LYMPHOCYTE” value [3]?
A: 13213.6 CELLS/uL

Q: And the “ABSOLUTE MONOCYTE” value [3]?
A: 369.4 CELLS/uL

Q: And the “ABSOLUTE SEGMENTED NEUTROPHIL” value [3]?
A: 2115.4 CELLS/uL

Q: What about the BASOPHIL [3] of the same compound?
A: 0%

Q: And the EOSINOPHIL [3]?
A: 0.8%

Q: What about the “ERYTHROCYTE COUNT” value [3] of the same compound?
A: 6.78 x10E6/uL

Q: And the HEMOGLOBIN [3]?
A: 14.32 G/DL

Q: What about the “LEUKOCYTE COUNT” value [3] of the same compound?
A: 15.82 x10E3/uL

Q: And the LYMPHOCYTE [3]?
A: 84.2%

Q: What about the “MEAN CORPUSCULAR HEMOGLOBIN” value [3] of the same compound?
A: 21.14 pg

Q: And the “MEAN CORPUSCULAR HEMOGLOBIN CONCENTRATION” value [3]?
A: 36.3 G/DL

Q: What about the “MEAN CORPUSCULAR VOLUME” value [3] of the same compound?
A: 58.22 fL

Q: What about the “NUCLEATED RED BLOOD CELLS” value [3] of the same compound?
A: 0 /100WBC

Q: What about the “PLATELET COUNT” value [3] of the same compound?
A: 976 x10E3/uL

Q: And the “ALANINE AMINOTRANSFERASE” value [3]?
A: 53.2 u/L

Q: And the ALBUMIN [3]?
A: 4.38 G/DL

Q: And the “ALKALINE PHOSPHATASE” value [3]?
A: 383.4 u/L

Q: And the “ASPARTATE AMINOTRANSFERASE” value [3]?
A: 82 u/L

Q: What about the “BLOOD UREA NITROGEN” value [3] of the same compound?
A: 15.6 mg/dL

Q: What about the “CARBON DIOXIDE” value [3] of the same compound?
A: 34.2 mmol/L

Q: And the CHLORIDE [3]?
A: 99.8 MEQ/L

Q: What about the CHOLESTEROL [3] of the same compound?
A: 80.2 mg/dL

Q: What about the CREATININE [3] of the same compound?
A: 0.21 mg/dL

Q: And the “LACTATE DEHYDROGENASE” value [3]?
A: 111.2 u/L

Q: And the LIPASE [3]?
A: 9 u/L

Q: What about the PHOSPHORUS [3] of the same compound?
A: 11.84 mg/dL

Q: And the POTASSIUM [3]?
A: 6.19 MEQ/L

Q: And the SODIUM [3]?
A: 147.16 MEQ/L

Q: What about the “TOTAL BILIRUBIN” value [3] of the same compound?
A: 0.14 mg/dL

Q: And the “TOTAL PROTEIN” value [3]?
A: 6.7 G/DL
